Assay results: the supplement of paper PMC6045584
± gives the standard deviation of the averaged measurements.

Key:
DASATINIB = compound: Cc1nc(Nc2ncc(C(=O)Nc3c(C)cccc3Cl)s2)cc(N2CCN(CCO)CC2)n1 [DASATINIB]; experiment: surviving fraction relative to DMSO-only wells; higher = less growth inhibition; details: exposure time: 5 days
Outline: (§1)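 Continuous five-day exposure to inhibitors at 0.5, 1, 5, 10, 50, 100, 500 and 1000 nM started 24 hours after log-phase tumour cell lines were seeded at 250–500 cells per well in 384-well plates. Luminescence was read after 10 minutes at room temperature. Viability is given as surviving fraction, meaning CellTiter-Glo luminescence normalised to the median of DMSO-only wells.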

XAV-939 = compound: Oc1nc(-c2ccc(C(F)(F)F)cc2)nc2c1CSCC2 [XAV-939]; experiment: as above; details: exposure time: 5 days
Outline: as §1

| Test System | surviving fraction (DASATINIB; 0.5 nM) | surviving fraction (DASATINIB; 1 nM) | surviving fraction (DASATINIB; 5 nM) | surviving fraction (DASATINIB; 10 nM) | surviving fraction (DASATINIB; 50 nM) | surviving fraction (DASATINIB; 100 nM) | surviving fraction (DASATINIB; 500 nM) | surviving fraction (DASATINIB; 1000 nM) | surviving fraction (XAV-939; 0.5 nM) | surviving fraction (XAV-939; 1 nM) | surviving fraction (XAV-939; 5 nM) | surviving fraction (XAV-939; 10 nM) | surviving fraction (XAV-939; 50 nM) | surviving fraction (XAV-939; 100 nM) | surviving fraction (XAV-939; 500 nM) | surviving fraction (XAV-939; 1000 nM) |
| --- | --- | --- | --- | --- | --- | --- | --- | --- | --- | --- | --- | --- | --- | --- | --- | --- |
| HCC1395 BREAST | 0.813 ± 0.065 | 0.961 ± 0.1 | 0.891 ± 0.068 | 0.902 ± 0.044 | 0.763 ± 0.093 | 0.704 ± 0.091 | 0.583 ± 0.067 | 0.591 ± 0.017 | 0.889 ± 0.052 | 0.822 ± 0.34 | 0.987 ± 0.096 | 0.937 ± 0.25 | 0.973 ± 0.12 | 0.847 ± 0.23 | 1.04 ± 0.027 | 0.855 ± 0.14 |
| HCC1806 BREAST | 0.682 ± 0.085 | 0.639 ± 0.021 | 0.71 ± 0.059 | 0.639 ± 0.075 | 0.446 ± 0.017 | 0.219 ± 0.038 | 0.167 ± 0.015 | 0.149 ± 0.021 | 0.98 ± 0.029 | 1.2 ± 0.089 | 1.11 ± 0.078 | 1.07 ± 0.061 | 1.14 ± 0.13 | 1.1 ± 0.036 | 1.04 ± 0.073 | 1.06 ± 0.091 |
| HCC1954 BREAST | 0.362 ± 0.011 | 0.325 ± 0.035 | 0.282 ± 0.0039 | 0.351 ± 0.006 | 0.309 ± 0.022 | 0.173 ± 0.021 | 0.148 ± 0.0028 | 0.104 ± 0.019 | 0.826 ± 0.073 | 1.02 ± 0.041 | 1.15 ± 0.24 | 1.06 ± 0.042 | 1.111 ± 0.0085 | 0.967 ± 0.088 | 0.637 ± 0.0081 | 0.723 ± 0.057 |
| HCT15 LARGE INTESTINE | 0.827 ± 0.034 | 0.814 ± 0.04 | 0.789 ± 0.06 | 0.73 ± 0.094 | 0.702 ± 0.044 | 0.56 ± 0.034 | 0.363 ± 0.083 | 0.326 ± 0.046 | 1.03 ± 0.058 | 1.07 ± 0.031 | 1.04 ± 0.034 | 1.07 ± 0.059 | 0.932 ± 0.054 | 1.03 ± 0.03 | 0.961 ± 0.064 | 0.973 ± 0.04 |
| HELA CERVIX | 0.937 ± 0.085 | 0.934 ± 0.057 | 0.948 ± 0.037 | 0.909 ± 0.029 | 1.02 ± 0.029 | 1.04 ± 0.011 | 1.04 ± 0.061 | 1.06 ± 0.037 | 1.02 ± 0.066 | 1.07 ± 0.033 | 1.06 ± 0.025 | 1.08 ± 0.036 | 1.09 ± 0.059 | 1.16 ± 0.028 | 1.09 ± 0.053 | 1.1 ± 0.049 |
| HOS BONE | 0.906 ± 0.018 | 0.908 ± 0.022 | 0.821 ± 0.015 | 0.763 ± 0.048 | 0.693 ± 0.0078 | 0.604 ± 0.015 | 0.382 ± 0.035 | 0.358 ± 0.014 | 1.01 ± 0.028 | 1.05 ± 0.016 | 1.02 ± 0.013 | 1.04 ± 0.0066 | 1.04 ± 0.029 | 1.04 ± 0.011 | 0.996 ± 0.02 | 1.05 ± 0.065 |
| HOSMNG BONE | 0.979 ± 0.032 | 0.971 ± 0.05 | 0.868 ± 0.021 | 0.741 ± 0.027 | 0.603 ± 0.021 | 0.457 ± 0.016 | 0.36 ± 0.019 | 0.372 ± 0.0076 | 0.922 ± 0.14 | 1.01 ± 0.11 | 0.947 ± 0.077 | 0.934 ± 0.1 | 0.948 ± 0.17 | 0.944 ± 0.089 | 0.934 ± 0.069 | 1.06 ± 0.094 |
| HSSYII SYNOVIAL | 0.781 ± 0.031 | 0.791 ± 0.034 | 0.765 ± 0.029 | 0.743 ± 0.022 | 0.634 ± 0.0095 | 0.531 ± 0.047 | 0.489 ± 0.056 | 0.501 ± 0.037 | 0.942 ± 0.026 | 0.901 ± 0.035 | 0.994 ± 0.043 | 0.976 ± 0.011 | 0.961 ± 0.013 | 0.938 ± 0.031 | 0.667 ± 0.034 | 0.617 ± 0.038 |
| HT1080 SOFT TISSUE | 0.975 ± 0.032 | 0.947 ± 0.043 | 0.918 ± 0.02 | 0.841 ± 0.046 | 0.61 ± 0.017 | 0.541 ± 0.017 | 0.428 ± 0.023 | 0.427 ± 0.01 | 1.05 ± 0.018 | 1.04 ± 0.05 | 1.03 ± 0.024 | 1.02 ± 0.023 | 0.971 ± 0.0036 | 0.872 ± 0.0099 | 0.579 ± 0.0091 | 0.476 ± 0.0083 |
| HU09 BONE | 0.863 ± 0.056 | 0.845 ± 0.025 | 0.805 ± 0.086 | 0.75 ± 0.056 | 0.392 ± 0.051 | 0.214 ± 0.019 | 0.129 ± 0.007 | 0.12 ± 0.018 | 1.11 ± 0.087 | 1.13 ± 0.061 | 1.06 ± 0.17 | 1.09 ± 0.051 | 1.01 ± 0.11 | 1.21 ± 0.031 | 0.817 ± 0.049 | 0.788 ± 0.043 |
